Measurements from patent US12123019B2, “Uses of kinase inhibitors for inducing and maintaining pluripotency” (Whitehead Institute for Biomedical Research, priority 2014, dated 2024).

Assays:
[1] = system: OCT4-ΔPE-GFP+ naïve human ESCs; assay: Maintenance of OCT4-ΔPE-GFP+ naïve human ESCs with additional media additives or changed basal medium; assay type: cell-based; details: for proportion of OCT4-ΔPE-GFP+ cells: inhibitor included in 5i/L/A medium, three passages
Source text: The kinase inhibitors reported by Hanna and colleagues may have an additive effect in combination with the 5i/L/A medium. […] Another difference between the naïve human studies reported to date is the use of 20% knock-out serum replacement (KSR) or Albumax-containing medium (Gafni et al., 2013; Valamehr et al., 2014; Ware et al., 2014) vs. serum-free N2B27 medium (this study). The consequences of applying the inhibitor cocktail in the presence of 20% KSR was therefore investigated. […] It is concluded that the induction and maintenance of OCT4-ΔPE-GFP+ human ESCs is highly sensitive to the choice of basal medium.

[2] = system: clonal line of OCT4-ΔPE-GFP+ cells derived in the absence of transgenes; assay: Withdrawal of single kinase inhibitors or growth factors from 5i/L/FA medium; assay type: cell-based, human; details: for differentiation and expression of pluripotency genes: FGF and Activin A removed together from 5i/L/FA
Source text: To investigate the relative contribution of individual components in 5i/L/FA medium, single kinase inhibitors or growth factors were removed from a clonal line of OCT4-ΔPE-GFP+ cells derived in the absence of transgenes. […] Therefore, the maintenance of OCT4-ΔPE-GFP reporter activity is dependent primarily on MEK inhibition and BRAF inhibition, while robust proliferation of GFP+ cells requires ROCK inhibition. Recombinant FGF enhances the induction of naïve reporter activity, but can be omitted in established GFP+ cells.

[3] = system: WIBR3 OCT4-ΔPE-GFP+ human ESCs; assay: Viability screen and titration: viable (DAPI-) OCT4-ΔPE-GFP+ cells after DOX withdrawal in 2i/L/SB590885; assay type: cell-based; details: for concentration giving a significant improvement in the proportion of viable GFP+ cells (titration): titration of PD0325901, CHIR99021 and SB590885, two passages after DOX withdrawal
Description: To screen for small molecules that support naïve human pluripotency, doxycycline was withdrawn from a clonal line of WIBR3 OCT4-ΔPE-GFP+ human ESCs derived in 2i/L/DOX. 24 h after Dox withdrawal, cells were dissociated in 0.25% trypsin/EDTA solution (Invitrogen) and seeded at a density of 5000 cells per individual well in 96 well plates on a MEF feeder layer in 2i/L supplemented with the ROCK-inhibitor Y-27632. After an additional 24 h, 2i/L medium in each individual 96 well was supplemented with a kinase inhibitor from the LINCS inhibitor library (Gray Laboratory, Dana Farber Cancer Institute, Boston, MA) at a final concentration of 1 μM. To improve experimental consistency the small molecule library was applied using the Caliper RapidPlate 96 well Liquid Handling System (Zymark, Westborough, MA). Briefly, a master plate containing 10 mM stock solution of the library in DMSO was first diluted to 100 μM in HEPES aqueous solution (daughter plate), and subsequently to 10 μM in N2B27 basal medium supplemented with 2i/L (granddaughter plate). This granddaughter plate was then diluted a further 10× in 2i/L medium, the final medium was pre-mixed and applied slowly to the 96 well assay plate. Following two medium changes during a seven day period the proportion of OCT4-ΔPE-GFP+ human ESCs in each well was assessed using the High-Throughput System on the LSRFortessa (Beckton-Dickinson, San Jose, CA). To screen for small molecules that improve the proportion of viable OCT4-ΔPE-GFP+ cells, this assay was modified by the addition of 1.0 μM SB590885 to each well and inclusion of a 10 minute DAPI (Life Technologies) staining prior to high-throughput FACS analysis. Viable cells were gated from the DAPI-negative fraction and subsequently assessed for GFP status.
This led us to consider whether other small molecules could cooperate with 2i/L/SB590885 to improve the fraction of viable GFP+ cells. Inclusion of a live/dead assay enhanced the resolution of the 96 well high-throughput FACS analysis, allowing for more sensitive discrimination between the proportion of viable OCT4-ΔPE-GFP+ cells cultured in 2i/L/DOX vs. 2i/L/SB590885 (FIG. 3A). This viability assay was included in a modified screen in which GFP+ cells were cultured for two passages after DOX withdrawal in 2i/L/SB590885 supplemented with the kinase inhibitor library (FIG. 3B-C and FIG. 10A). […] A titration of the concentrations of PD0325901, CHIR99021 and SB590885 was also performed during two passages after DOX withdrawal followed by high-throughput FACS analysis (FIG. 3D). […] This is reminiscent of recent evidence that lowered GSK3 inhibition reduces differentiation and enhances the self-renewal of rat ESCs (Meek et al., 2013). […]

[4] = system: transgene-dependent naïve human ES cells (subclone of WIBR3); assay: Titration and proliferation assay in transgene-dependent naïve human ES cell line after DOX withdrawal (GSK3/Wnt signal modulators); assay type: cell-based; details: added to 4i/L/A: CHIR99021 1 μM replacing IM12, or IWR1 2.5 μM
Description: A transgene-dependent naïve human embryonic stem (ES) cell line, a subclone of WIBR3, was used to titrate different concentrations of inhibitors in 5i/L/A (see Theunissen et al., Cell Stem Cell, 2014). The cell line used is dependent on Doxycycline (DOX) to maintain the expression of two lentiviral transgenes, KLF2 and NANOG. […] A titration assay was performed to determine the optimal concentrations of small molecule inhibitors to maintain naïve human DES cells. The cells were subject to sequential passaging by single cell dissociation at low density (1:10) under four conditions: 2i/L, 5i/L/A, t5i/L/A (0.2 μM GSK3 inhibitor IM12) and 4i/L/A (removal of GSK3 inhibitor IM12).
The proliferation of naïve human ES cells in the presence of different Wnt signal modulators was quantified after the withdrawal of DOX from the transgene-dependent cell line described above. In a six-well plate, 1×10^5 cells were seeded per well and cells were dissociated and re-seeded at a 1:5 density for three successive passages. Cell numbers at successive passages were recorded under six conditions (n=2 per group): 2i/L/DOX (control), 2i/L, 5i/L/A, 4i/L/A (removal of GSK3 inhibitor IM12), 4i/L/A+CHIR99021 (1 μM), and 4i/L/A+IWR1 (2.5 μM).

OCT4-ΔPE-GFP+ human ESCs = assay: Validation of hit compounds in 6 well format: DOX withdrawal and culture in 2i/L plus hit compound; assay type: cell-based
Source text: To identify compounds that sustain OCT4-ΔPE-GFP activity in the absence of KLF2 and NANOG expression, a kinase inhibitor library was screened in the presence of 2i/L for a period of 7 days after DOX withdrawal in 96 well format (FIG. 2A). This screen identified 10 different hit compounds that partially rescued the proportion of GFP+ cells when assayed by high-throughput FACS analysis (FIG. 2B-C and FIG. 9A). Notable among these hits were four separate inhibitors of BRAF and four inhibitors of upstream receptor tyrosine kinases (RTKs), including DDR1, VEGFR1 and FGFR1. A validation experiment was then performed in 6 well format by withdrawing DOX and culturing the cells in 2i/L supplemented with each hit compound for up to 10 passages (FIG. 2D). Nearly all hit compounds maintained a proportion of GFP+ cells similar to that observed with DOX. […] Gene expression analysis 5 passages after DOX withdrawal confirmed the absence of KLF2 and NANOG transgene expression and retention of endogenous OCT4 and GFP transcripts (FIG. 2E and FIG. 9B). To validate these findings in an independent system DOX-inducible KLF2 and NANOG transgenes were introduced in a line of wild-type WIBR3 human ESCs. Upon application of DOX and 2i/L, dome-shaped colonies appeared that could be expanded clonally.

[5] = three passages after withdrawal of the component from 5i/L/FA

insulin: media additive
beneficial effect of additive ([1]; insulin added): A beneficial effect was not observed

Cc1ccc(-n2nc(C(C)(C)C)cc2NC(=O)Nc2ccc(OCCN3CCOCC3)c3ccccc23)cc1 [BIRB796]
proportion of OCT4-ΔPE-GFP+ cells [1]: did not affect

hLIF: recombinant human LIF (made in-house)
OCT4-ΔPE-GFP reporter activity [2, 5]: unaffected | pluripotency gene expression [2, 5]: unaffected

O=C(NOC[C@H](O)CO)c1ccc(F)c(F)c1Nc1ccc(I)cc1F [PD0325901]
concentration giving a significant improvement in the proportion of viable GFP+ cells (titration) [3]: 1 µM | OCT4-ΔPE-GFP reporter activity [2, 5]: rapid and widespread loss | colony morphology [2, 5]: rapid and widespread loss | pluripotency gene expression [2, 5]: rapid and widespread loss

O=C(Nc1cccc2cccnc12)c1ccc(N2C(=O)[C@@H]3[C@H](C2=O)[C@@H]2C=C[C@H]3C2)cc1 [IWR1]
proliferation of naïve human cells (cell number) [4]: did not further stimulate the proliferation

CC(N)C1CCC(C(=O)Nc2ccncc2)CC1 (stereo not drawn) [Y-27632]
proportion of viable GFP+ cells ([3]; Y-27632 (10 μM) added to 2i/L/SB590885 (0.5 μM), two passages): improved the proportion of viable GFP+ cells | proliferation [2, 5]: significant reduction

O=C1c2ccccc2-c2n[nH]c3cccc1c23 [SP600125]
expression of KLF4 and KLF2 ([1]; SP600125 added to 5i/L/A): increase in expression of KLF4 and KLF2 | proportion of OCT4-ΔPE-GFP+ cells [1]: did not affect

Cc1[nH]c2ccccc2c1C1=C(NCCc2ccc(F)cc2)C(=O)N(C)C1=O [IM12]
morphology upon long-term culture without DOX ([3]; CHIR99021 replaced with IM12): improved morphology

FGF: recombinant fibroblast growth factor 2 (R&D systems, 8 ng/mL)
differentiation and expression of pluripotency genes [2]: more differentiation and reduced expression | any of the parameters examined ([2]; withdrawal of FGF from 5i/L/FA): no apparent effect

CN(C)CCOc1ccc(-c2nc(-c3ccncc3)c(-c3ccc4c(c3)CC/C4=N\O)[nH]2)cc1 [SB590885]
colony morphology and proliferation (OCT4-ΔPE-GFP+ human ESCs; 6 well, 2i/L plus hit compound, up to 10 passages without DOX): preserved the best colony morphology and proliferation | colony morphology and expression of endogenous OCT4 (OCT4-ΔPE-GFP+ human ESCs; wild-type WIBR3 lines with DOX-inducible KLF2 and NANOG, maintained in 2i/L/SB590885 after DOX withdrawal): retaining both colony morphology and the expression of endogenous OCT4 | viability (FACS-based live/dead discrimination assay) ([3]; cells maintained in 2i/L/SB590885): reduced viability | concentration giving a significant improvement in the proportion of viable GFP+ cells (titration) [3]: 0.5 µM | OCT4-ΔPE-GFP reporter activity [2, 5]: rapid and widespread loss | colony morphology [2, 5]: rapid and widespread loss | pluripotency gene expression [2, 5]: rapid and widespread loss

COc1ccc(N(C(=O)Oc2c(C)cccc2C)c2ccnc(Nc3ccc(N4CCN(C)CC4)cc3)n2)c(OC)c1 [WH-4-023]
proportion of viable OCT4-ΔPE-GFP+ cells after DOX withdrawal ([3]; 1 μM WH-4-023 combined with optimized concentrations of PD0325901, CHIR99021 and SB590885): further improved | fraction of viable GFP+ cells ([3]; two passages after DOX withdrawal in 2i/L/SB590885 supplemented with kinase inhibitor library): improved the fraction of viable GFP+ cells | OCT4-ΔPE-GFP reporter activity [2, 5]: slight reduction | colony morphology [2, 5]: change in morphology

Activin A: cytokine (Peprotech, 20 ng/mL)
differentiation and expression of pluripotency genes [2]: more differentiation and reduced expression | OCT4-ΔPE-GFP reporter activity [2, 5]: did not cause a reduction

Cc1cnc(-c2cnc(NCCNc3ccc(C#N)cn3)nc2-c2ccc(Cl)cc2Cl)[nH]1 [CHIR99021]
proportion of viable GFP+ cells ([3]; higher concentrations of CHIR99021): opposite effect | proportion of viable GFP+ cells ([3]; lower concentrations of CHIR99021): improved the proportion of viable GFP+ cells | concentration giving a significant improvement in the proportion of viable GFP+ cells (titration) [3]: 0.3 µM | proliferation of naïve human cells (cell number) [4]: did not further stimulate the proliferation
